Data: patent US12083115B2, “Methods for treating neurological symptoms associated with lysosomal storage diseases” (Genzyme Corporation, priority 2020, dated 2024)

Key:
[1] = test system: GM3 expression in B16 mouse melanoma cells; test: GM3 fluorescent-linked immunosorbent assay (FLISA), B16; format: cell-based; details: 48 hours
Description: Inhibition of glucosylceramide synthase activity can be measured with one or more assays. A first assay is a microsomal assay that directly measures the conversion of ceramide to glucosylceramide by HPLC. Microsomes are a source of glucosylceramide synthase activity in the microsomal assay. A second assay is a cell based, phenotypic assay that monitors cell surface expression of the downstream lipid GM3 by antibody mediated immunofluorescence. Specific protocols are provided below.
This is a phenotypic assay that measures GM3 expression in B16 mouse melanoma or C32 human melanoma cells following treatment with test compounds. Cell surface GM3 expression is determined by antibody mediated fluorescence.
Compounds are diluted in media and plated in 384 well plates in DMSO. B16 and C32 cells are assayed at densities of 20,000 cells/ml and 62,500 cells/ml, respectively, per well. Each titration curve contains 10 points that are assayed in duplicate on each test run. The plates are incubated for 48 hours at 37° C., 5% CO2, and are then washed once with TBS. Anti-GM3 antibody is added to each well and the plates are then incubated for an additional one hour at room temperature. Plates are subsequently washed twice and incubated for an additional hour with the labeled secondary antibody. Following the final incubation, the plates are washed twice and the fluorescence at λex=D640/20 nm and λem=657 nm is detected on a fluorescent reader.
The results of the microsomal assays are expressed as “GCS IC50,” which represents the concentration of the compound causing 50% inhibition of glucosylceramide synthase activity. The results of the cell-based assays are expressed as “GM3 B16 IC50” or “GM3 C32 IC50” for the B16 assay and the C32 assay, respectively. These values represent the concentration of the compound causing 50% inhibition of GM3 expression on the cell surface.

[2] = test system: adult patients with Gaucher disease Type 3; test: Clinical study in GD-3 patients: resting-state fMRI connectivity; format: in vivo, human
Method: During the study patients were evaluated for safety and tolerability, CSF and plasma biomarkers (glucosylceramide, GL-1; glucosylsphingosine, lyso-GL1), pharmacokinetics, markers for systemic disease (spleen and liver volume measured by magnetic resonance imaging (MRI), platelet count, hemoglobin levels), indicia of interstitial lung disease (high resolution pulmonary computed tomography (CT)), and horizontal saccadic eye movement. In addition, exploratory biomarkers were quantified in CSF of GD3 patients: ceramide (the precursor of GL-1), chitotriosidase (CHITO), GM3, and GPNMB. Symptoms of ataxia were measured using the SARA scale, neurological symptoms were measured using the trail making test, and functional MRI was used to assess neural connectivity in the brain.
Neurological function was further evaluated using functional magnetic resonance imaging (fMRI). Patient 2 was excluded because no fMRI data was collected at the Week 52 session. Resting-state fMRI screening sessions were performed at baseline screening, Week 26, and Week 52 visits. Connectivity estimates from four subjects (Patients 1, 3, 4, and […]) were entered into second-level analyses as a “compliant” group. Patient 5 was isolated due to likely non-compliance with study medication, as described above. Analyses were performed as described elsewhere (Smith et al. [2009]).
Spatial analysis of the connectivity between different anatomic regions of the brain is performed to define a correlation coefficient for regressed voxelwise mean intensity.
The results are summarized in the table below for all patients for RSNs 3 and 6 (RSNs 4 and 8 are not included) for the change in correlation coefficient between baseline and 52 weeks (as noted supra, Patient 2 is excluded because of lack of data).

CC(C)(NC(=O)O[C@@H]1CN2CCC1CC2)c1csc(-c2ccc(F)cc2)n1 [Compound 2, (S)-quinuclidin-3-yl 2-(2-(4-fluorophenyl)thiazol-4-yl)propan-2-ylcarbamate]
IC50 [1]: 107 µM
Change in Correlation Coefficient ([2]; Patient 1, RSNs 3 and 6, baseline to 52 weeks): 0.359
Change in Correlation Coefficient ([2]; Patient 1, default mode (resting) network vs executive function network, first interim analysis): +0.20
Change in Correlation Coefficient ([2]; Patient 3, RSNs 3 and 6, baseline to 52 weeks): 0.383
Change in Correlation Coefficient ([2]; Patient 3, default mode (resting) network vs executive function network, first interim analysis): +0.20
Change in Correlation Coefficient ([2]; Patient 4, RSNs 3 and 6, baseline to 52 weeks): 0.201
Change in Correlation Coefficient ([2]; Patient 4, default mode (resting) network vs executive function network, first interim analysis): +0.20
Change in Correlation Coefficient ([2]; Patient 5 (insufficient Compound 2 exposure), RSNs 3 and 6, baseline to 52 weeks): −0.173
Change in Correlation Coefficient ([2]; Patient 5 (likely non-compliance), default mode (resting) network vs executive function network, first interim analysis): −0.13
Change in Correlation Coefficient ([2]; Patient 6, RSNs 3 and 6, baseline to 52 weeks): 0.779
Change in Correlation Coefficient ([2]; Patient 6, default mode (resting) network vs executive function network, first interim analysis): +0.70
Change in Correlation Coefficient ([2]; Patient 7, RSNs 3 and 6, baseline to 52 weeks): −0.013
Change in Correlation Coefficient ([2]; Patient 8, RSNs 3 and 6, baseline to 52 weeks): −0.058
Change in Correlation Coefficient ([2]; Patient 9, RSNs 3 and 6, baseline to 52 weeks): −0.302
Change in Correlation Coefficient ([2]; Patient 10, RSNs 3 and 6, baseline to 52 weeks): 0.105
Change in Correlation Coefficient ([2]; Patient 11, RSNs 3 and 6, baseline to 52 weeks): 0.035
connectivity between default mode and medial frontal networks (fMRI) ([2]; every subject except Patient 5, first interim analysis): enhanced connectivity
connectivity between RSNs 1, 2 and 3 and RSNs 6, 7 and 8 (fMRI) ([2]; patients with sufficient Compound 2 exposure, second interim analysis): enhanced connectivity
